Values after ≈ are worked out from the molar mass of the structure shown. Active and inactive are the calls of the source. No cut-off for these calls is given here.
Experiments:
Aedes aegypti [1] = test: Larvicidal activity against Aedes aegypti fourth instar larvae after 24 hrs; assay type: functional; details: for LC50: Aedes aegypti, 24 h
Aedes aegypti [2] = test: Larvicidal activity against Aedes aegypti fourth instar larvae at 20 ug/ml after 24 hrs; assay type: functional
Aedes aegypti [3] = test: Larvicidal activity against Aedes aegypti fourth instar larvae at 60 ug/ml after 24 hrs; assay type: functional, organism-based
Aedes aegypti [4] = test: Larvicidal activity against Aedes aegypti fourth instar larvae at 6.5 ug/ml after 24 hrs; assay type: functional

| SMILES | LC90 (Aedes aegypti [1]) [µg/mL] | LC50 (Aedes aegypti [1]) [µg/mL] | Activity (Aedes aegypti [2]) [%] | Activity (Aedes aegypti [3]) | Activity (Aedes aegypti [4]) [%] |
| --- | --- | --- | --- | --- | --- |
| C=C(C)[C@H]1Cc2c(ccc3c2O[C@@H]2COc4cc(OC)c(OC)cc4[C@@H]2C3=O)O1 [ROTENONE] | 25 (≈ 63.4 µM) | 6.2 (≈ 15.7 µM) |  |  |  |
| CC1=CC(=O)c2c(ccc(O)c2O)C1=O | 19.28 (≈ 94.4 µM) | 13.6 (≈ 66.8 µM) | 100 |  |  |
| C[C@H]1CC(=O)c2c(O)cccc2[C@H]1O [ISOSHINANOLONE] | 4.1 (≈ 21.3 µM) | 1.26 (≈ 6.56 µM) |  |  |  |
| CC1=CC(=O)c2c(ccc(C3=C(C)C(=O)c4cccc(O)c4C3=O)c2O)C1=O |  |  |  | inactive |  |
| CC1=CC(=O)c2c(O)cccc2C1=O [PLUMBAGIN] | 6.56 (≈ 34.9 µM) | 5.43 (≈ 28.9 µM) |  |  | 100 |
| COC1=C(C)C(=O)c2cccc(O)c2C1=O | 55.72 (≈ 255 µM) | 31.5 (≈ 144 µM) |  |  |  |
| C[C@H]1C[C@H](O)c2cccc(O)c2C1=O |  |  |  | inactive |  |
| CC1=CC(=O)c2c(ccc(-c3cc(O)c4c(c3C)C(=O)CCC4=O)c2O)C1=O | 42.72 (≈ 114 µM) | 31.2 (≈ 82.9 µM) |  |  |  |
| CC1=CC(=O)c2c(O)ccc(-c3ccc(O)c4c3C(=O)C(C)=CC4=O)c2C1=O [MARITINONE] | 53.87 (≈ 144 µM) | 40.7 (≈ 109 µM) |  |  |  |
